According to article PMC11554305, “Functional identification of soluble uric acid as an endogenous inhibitor of CD38” (eLife, 2024):

Legend:
[1] = biological target: T1, CD38 (Mus musculus, UniProt P56528); assay: Hydrolase and cyclase activities of human and murine CD38; type: biochemical; details: lung tissues from WT mice, OA 0–5 mM
T1 construct: host or cells: recombinant hCD38, cells and mouse tissues
T1 sequence (P56528 1-304): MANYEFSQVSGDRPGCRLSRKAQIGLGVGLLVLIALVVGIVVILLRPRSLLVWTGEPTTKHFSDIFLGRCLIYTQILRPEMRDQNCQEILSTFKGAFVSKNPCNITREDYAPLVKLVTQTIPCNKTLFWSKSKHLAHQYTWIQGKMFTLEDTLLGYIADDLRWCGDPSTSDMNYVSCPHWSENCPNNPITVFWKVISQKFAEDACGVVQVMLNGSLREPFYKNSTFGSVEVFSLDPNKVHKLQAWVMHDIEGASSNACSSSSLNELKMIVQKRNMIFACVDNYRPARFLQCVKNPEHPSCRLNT
Description: (§1) The hydrolase activity of CD38 was measured according to a previous report ([de Oliveira et al., 2018]) with minor modifications. CD38 hydrolase activity was measured using 50 μM ε-NAD^+ as a substrate in hydrolase reaction buffer (250 mM sucrose, 40 mM Tris-HCl, pH 7.4). Briefly, cells or tissues were directly homogenized in blank reaction buffer on ice, and recombinant hCD38 was diluted in blank reaction buffer for subsequent assays. The tissue homogenates were centrifuged to collect the supernatant for enzyme assays. The loading volume of enzyme was 4–30 μL, the total volume of the reaction system was 3 mL. To detect enzyme inhibition, except when specified, the ligands were directly dissolved in hydrolase reaction buffer before pH adjustment, after which, the pH was immediately adjusted to 7.4. All reaction buffers, with or without ligands, were freshly prepared before each assay. For measurement of hydrolase activity, 3 mL reaction buffer containing enzyme, ε-NAD^+, and ligands at indicated concentrations was maintained at 37°C with constant stirring.
(§2) The cyclase activity of CD38 was measured as previously described ([Higashida et al., 1999]; [Jin et al., 2007]). CD38 cyclase activity was measured using 60 μM NGD as a substrate in cyclase reaction buffer (100 mM KCl, 10 μM CaCl2, and 50 mM Tris-HCl, pH 6.6). Tissues were cut into pieces and suspended in the buffer (5 mM MgCl2, 10 mM Tris-HCl, pH 7.3) at 4°C for 30 min. Then, the suspension was homogenized on ice, and the supernatant was collected after centrifugation. To collect the crude membrane fractions, the supernatant was centrifuged at 105,000×g for 30 min. The final pellet was resuspended in 10 mM Tris-HCl solution (pH 6.6) for cyclase assay. Homogenates of THP-1 or A549 cells, and recombinant hCD38 were used directly for cyclase assays. The loading volume of enzyme was 4–20 μL, the total volume of reaction system was 3 mL. To detect enzyme inhibition, except when specified, the ligands were directly dissolved in cyclase reaction buffer before pH adjustment, after which, the pH was immediately adjusted to 6.6. All reaction buffers, with or without ligands, were freshly prepared before each assay. For measurement of cyclase activity, 3 mL reaction buffer containing enzyme, NGD, and ligands at indicated concentrations was maintained at 37°C with constant stirring.
(§3) The reaction buffer for hydrolase or cyclase assays was excited at 300 nm, and fluorescence emission was measured every second at 410 nm by Shimazu RF-6000 spectrofluorometer. Hydrolase or cyclase activity was calculated from the linear portion of the time course by fitting a linear function to the data points recorded within 5 min.
(§4) Guanosine was dissolved in DMSO and diluted in the reaction buffer for subsequent assays.
(§5) For reversibility test, recombinant hCD38 was pre-incubated for 30 min in four conditions: (1) control reaction buffer; (2) in the presence of 100 μM substrate (ε-NAD^+ or NGD); (3) 500 μM sUA; (4) both substrate and sUA. Subsequently, the enzyme was diluted 100-fold in reaction buffer in the presence or absence of 500 μM sUA for activity assays using ε-NAD^+ or NGD. Naïve THP-1 and A549 cells were incubated with RPMI-1640 medium in the presence or absence of 500 μM sUA for 2 hr. The cells were collected and homogenized in the reaction buffer on ice with or without 500 μM sUA, samples were then diluted 100-fold in reaction buffer with or without 500 μM sUA for enzyme assay. Control group was not treated with sUA in all steps; sUA group was treated with sUA in each step; sUA release group was treated with sUA prior to dilution in sUA-free buffer for enzyme assays.

[2] = biological target: T2, CD38 (Homo sapiens, UniProt P28907); assay: as above; type: biochemical
T2 construct: host or cells: recombinant hCD38, cells and mouse tissues
T2 sequence (P28907 43-300): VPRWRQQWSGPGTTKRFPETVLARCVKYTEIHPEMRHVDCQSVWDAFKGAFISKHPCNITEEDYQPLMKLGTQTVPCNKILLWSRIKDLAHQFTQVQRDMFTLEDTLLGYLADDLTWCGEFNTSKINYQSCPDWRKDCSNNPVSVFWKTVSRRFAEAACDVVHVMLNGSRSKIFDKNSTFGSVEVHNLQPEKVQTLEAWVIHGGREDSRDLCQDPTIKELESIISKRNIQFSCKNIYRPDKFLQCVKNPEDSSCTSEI
Description: as §1, §2, §3, §4, §5

[3] = system: neutrophils; design: method as in Ma et al., 2022; details: sUA 595 μM; ref Ma et al., 2022; cited from earlier work
[4] = system: primed THP-1 cells; assay: Canonical inflammasome assay, IL-1β release in primed THP-1 cells; type: cell-based, human
Description: (§6) Human IL-1β, mouse IL-1β, IL-6, IL-18, TNF-α, and CXCL1 levels were measured according to the protocols provided by the manufacturer. Serum samples were diluted before ELISA when applicable. In this study, all the samples were frozen after collection and thawed before ELISA.
Naïve THP-1 cells were primed with 0.5 μM phorbol 12-myristate 13-acetate for 3 hr the day before stimulation. Primed THP-1 cells were pre-incubated in RPMI-1640 medium in the presence or absence of sUA (5 or 10 mg/dL) for 2 hr. The cells were then washed twice with sterile PBS, and were stimulated with MSU crystals, cLPS, zymosan, and ATP in serum-free RPMI-1640 medium for 4 hr.
(§7) After stimulation, the culture medium was collected and centrifuged at 3000 rpm, 4°C for 5 min, the supernatant was collected and stored at –30°C until ELISA.

[5] = system: primed WT BMDMs; assay: Canonical inflammasome assay, IL-1β release in primed BMDMs; type: cell-based, mouse
Description: as §6
WT and CD38 KO BMDMs were primed with 100 ng/mL ultrapure LPS for 4 hr. Subsequently, primed BMDMs were pre-incubated with or without sUA for 2 hr, the cells were then washed twice with sterile PBS and were stimulated with nigericin, MSU crystals, or cLPS in serum-free RPMI-1640 medium.
as §7

SMILES | IC50 for CD38 (in words) [1] | Reversibility of the inhibitory effects on CD38 ([2]; 30 min pre-incubation with 500 μM sUA, 100-fold dilution, hCD38, A549, THP-1) | Mode of inhibition of CD38 ([2]; different substrate concentrations, Figure 1C, D) | Neutrophil response to IL-8 [3] | Induction of IL-1β release by sUA itself [4] | IL-1β release after stimulation ([4]; sUA pre-incubation 2 hr, then MSU crystals, cLPS, zymosan or ATP) | Induction of IL-1β release by sUA itself ([5]; sUA 100, 200 and 500 μM, 6 hr) | Inflammasome activation (IL-1β release) ([5]; sUA 100 or 200 μM pre-incubation 2 hr)
O=C(O)c1nc(=O)[nH]c(=O)[nH]1 [OA, oxonic acid, reference compound] | millimolar range |  |  |  |  |  |  | 
O=c1[nH]c(=O)c2[nH]c(=O)[nH]c2[nH]1 [sUA, uric acid] |  | reversible | non-competitive inhibitor | inhibits neutrophils in response to IL-8 | did not induce IL-1β release | moderately limited IL-1β release | did not induce IL-1β release | hardly suppressed inflammasome activation
